Test results: PMC6906232 (The Journal of pharmacy and pharmacology, 2019)

Biological target: D184A mutant CB1 receptor (Homo sapiens, UniProt P21554, D184A)
Test: Methanandamide competition binding with [3H]CP55940 as tracer
Settings: [3H]CP55940 tracer

Chain of D184A mutant CB1 receptor (P21554 whole entry D184A): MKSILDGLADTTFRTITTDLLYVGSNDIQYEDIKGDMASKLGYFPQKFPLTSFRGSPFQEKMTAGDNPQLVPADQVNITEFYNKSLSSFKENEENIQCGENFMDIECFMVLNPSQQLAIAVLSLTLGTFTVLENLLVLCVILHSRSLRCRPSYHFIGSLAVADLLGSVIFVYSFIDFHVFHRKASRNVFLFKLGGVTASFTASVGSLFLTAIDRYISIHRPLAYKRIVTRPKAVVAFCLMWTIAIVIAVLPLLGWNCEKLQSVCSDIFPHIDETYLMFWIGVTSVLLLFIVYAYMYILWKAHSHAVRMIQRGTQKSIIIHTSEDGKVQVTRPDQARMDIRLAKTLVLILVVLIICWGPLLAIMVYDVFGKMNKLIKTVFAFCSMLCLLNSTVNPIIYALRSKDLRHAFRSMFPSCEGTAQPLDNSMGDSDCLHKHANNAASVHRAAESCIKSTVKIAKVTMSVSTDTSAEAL

Question: Which methanandamide binding (agonist alone, no modulator) does the source give for `CCCCC/C=C\C/C=C\C/C=C\C/C=C\CCCC(=O)N[C@H](C)CO` [methanandamide] here?
Answer: did not bind

Question: What about the methanandamide binding (with 1 μM PSNCBAM-1) of the same compound?
Answer: binding was restored
